# From ChEMBL document CHEMBL1201862, “PubChem BioAssay data set” (2004)
# Active and inactive are the calls of the source.
# Columns and labels:
# [1] = Luminescent dose response cell-based high throughput screening assay for inhibitors of the Janus kinase 2 mutant JAK2V617F. [Related pubchem assays: 1446 (Primary screen.), 1521 (Confirmation assay.), 1486 (Counter screen.)]; assay type: functional
# [2] = target: T1, Replicative DNA helicase DnaB (Mycobacterium tuberculosis, UniProt P9WMR3); experiment: DnaB intein splicing inhibitors, dose response, biochemical, cell-free fluorescence (AID 449749); assay type: functional
# T1 sequence (P9WMR3 whole entry): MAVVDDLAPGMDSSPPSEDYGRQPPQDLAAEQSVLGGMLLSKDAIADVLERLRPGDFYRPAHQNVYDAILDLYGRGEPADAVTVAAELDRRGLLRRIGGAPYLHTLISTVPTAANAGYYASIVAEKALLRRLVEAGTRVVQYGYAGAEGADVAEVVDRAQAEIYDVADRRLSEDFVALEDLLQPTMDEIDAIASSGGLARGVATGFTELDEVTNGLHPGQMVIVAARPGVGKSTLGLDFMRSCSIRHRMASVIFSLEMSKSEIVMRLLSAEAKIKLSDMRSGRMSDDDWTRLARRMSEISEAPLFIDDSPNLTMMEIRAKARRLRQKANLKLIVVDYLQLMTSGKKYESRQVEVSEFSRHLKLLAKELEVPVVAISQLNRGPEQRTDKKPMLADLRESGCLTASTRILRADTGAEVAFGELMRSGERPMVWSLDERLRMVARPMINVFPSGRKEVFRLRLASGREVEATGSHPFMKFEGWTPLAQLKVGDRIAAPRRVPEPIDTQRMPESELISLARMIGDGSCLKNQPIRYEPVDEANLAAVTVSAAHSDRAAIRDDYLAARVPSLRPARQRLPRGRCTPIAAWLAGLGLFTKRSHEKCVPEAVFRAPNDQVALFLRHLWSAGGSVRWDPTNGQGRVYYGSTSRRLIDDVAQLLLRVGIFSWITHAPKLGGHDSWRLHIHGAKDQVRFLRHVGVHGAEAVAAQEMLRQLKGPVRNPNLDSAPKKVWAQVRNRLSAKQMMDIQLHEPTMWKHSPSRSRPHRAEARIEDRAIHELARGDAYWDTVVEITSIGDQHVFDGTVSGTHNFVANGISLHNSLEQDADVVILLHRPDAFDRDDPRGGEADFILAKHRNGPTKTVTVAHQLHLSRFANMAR
# Protein RecA = target: T2, Protein RecA (Mycobacterium tuberculosis, UniProt P9WHJ3); experiment: Fluorescence Cell-Free Homogeneous Dose Retest to Identify Inhibitors of RecA-Intein Splicing Activity. [Related pubchem assays (depositor defined):AID2097, AID2223, AID489010, AID492950]; assay type: functional
# T2 sequence (P9WHJ3 whole entry): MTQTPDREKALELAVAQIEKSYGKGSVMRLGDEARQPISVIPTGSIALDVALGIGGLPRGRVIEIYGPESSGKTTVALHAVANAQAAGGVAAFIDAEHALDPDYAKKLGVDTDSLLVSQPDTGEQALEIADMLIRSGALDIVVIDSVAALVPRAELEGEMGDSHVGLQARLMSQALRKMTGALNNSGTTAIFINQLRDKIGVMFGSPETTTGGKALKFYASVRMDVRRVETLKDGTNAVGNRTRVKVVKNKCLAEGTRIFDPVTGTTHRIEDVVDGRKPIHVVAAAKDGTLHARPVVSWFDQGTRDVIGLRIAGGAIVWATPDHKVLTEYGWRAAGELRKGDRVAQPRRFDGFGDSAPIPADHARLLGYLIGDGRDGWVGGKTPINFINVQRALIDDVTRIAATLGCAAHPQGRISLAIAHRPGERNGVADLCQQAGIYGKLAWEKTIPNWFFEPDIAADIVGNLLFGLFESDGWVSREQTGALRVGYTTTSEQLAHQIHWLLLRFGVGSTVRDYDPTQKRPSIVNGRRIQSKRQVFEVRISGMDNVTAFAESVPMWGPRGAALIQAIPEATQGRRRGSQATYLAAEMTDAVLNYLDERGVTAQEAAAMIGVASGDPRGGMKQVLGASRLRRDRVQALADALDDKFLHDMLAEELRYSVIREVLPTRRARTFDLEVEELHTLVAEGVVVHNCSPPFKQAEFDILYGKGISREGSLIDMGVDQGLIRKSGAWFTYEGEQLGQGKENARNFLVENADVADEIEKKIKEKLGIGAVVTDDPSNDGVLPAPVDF
# Paired box protein Pax-8 = Paired box protein Pax-8 (Homo sapiens, UniProt Q06710); experiment: PAX8 transcriptional activity inhibition in RMG-I – RMG-I cells, luciferase, cherry-pick, dose response (AID 687027); assay type: functional, cell-based;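 also: luciferase reporter driven by Pax8 target thyroperoxidase promoter measured by SteadyGlo luminescence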
# [3] = general cell-killing toxicity readout – plate reader, dry powder samples, cytotoxicity control for PAX8 inhibitor project, dose response (AID 743021); assay type: functional, cell-based
# [4] = target: Peroxisome proliferator-activated receptor gamma/Nuclear receptor coactivator 1 (Homo sapiens, UniProt P37231); experiment: TR-FRET dose response biochemical High Throughput Screening assay for agonists of the steroid receptor coactivator 1 (SRC-1) recruitment by the peroxisome proliferator-activated receptor gamma (PPAR gamma): non-selective agonists. [Related pubchem assays (depositor defined):AID1300, AID1808, AID504735, AID631]; assay type: protein assay
# [5] = target: Peroxisome proliferator-activated receptor gamma/Nuclear receptor coactivator 3 (Homo sapiens, UniProt P37231); experiment: TR-FRET dose response biochemical High Throughput Screening assay for agonists of the steroid receptor coactivator 3 (SRC-3) recruitment by the peroxisome proliferator-activated receptor gamma (PPAR gamma): non-selective agonists. [Related pubchem assays: 1301 (Confirmation screen.), 1048 (Primary screen.)]; assay type: functional
# [6] = target: Peroxisome proliferator-activated receptor gamma/Nuclear receptor coactivator 2 (Homo sapiens, UniProt P37231); experiment: TR-FRET dose response biochemical High Throughput Screening assay for agonists of the steroid receptor coactivator 2 (SRC-2) recruitment by the peroxisome proliferator-activated receptor gamma (PPAR gamma): non-selective agonists. [Related pubchem assays: 1297, 1032 ]; assay type: functional
# Ephrin type-A receptor 4 = Ephrin type-A receptor 4 (Mus musculus, UniProt Q03137); experiment: EphA4 ligand-binding antagonists – biochemical, colorimetric, mouse EphA4, primary screen (AID 689); assay type: functional
# [7] = target: T3, Polyadenylate-binding protein 1 (Homo sapiens, UniProt P11940); experiment: MLLE binding blockers, Cy5 peptide tracer – biochemical, fluorescence polarization, Cy5-PAM2 peptide, secondary, miRNA deadenylation inhibitor project, dose response (AID 602260); assay type: functional; conditions: read-out: IC50_Mean
# [8] = target: T3, Polyadenylate-binding protein 1; experiment: MLLE domain peptide-binding blockers, IC50 – biochemical, fluorescence polarization, FITC-PAM2 peptide, dose response (AID 602259); assay type: functional; conditions: read-out: IC50_Mean
# Protein skinhead-1 = target: T4, Protein skinhead-1 (Caenorhabditis elegans, UniProt P34707); assay type: functional
# T4 sequence (P34707 whole entry): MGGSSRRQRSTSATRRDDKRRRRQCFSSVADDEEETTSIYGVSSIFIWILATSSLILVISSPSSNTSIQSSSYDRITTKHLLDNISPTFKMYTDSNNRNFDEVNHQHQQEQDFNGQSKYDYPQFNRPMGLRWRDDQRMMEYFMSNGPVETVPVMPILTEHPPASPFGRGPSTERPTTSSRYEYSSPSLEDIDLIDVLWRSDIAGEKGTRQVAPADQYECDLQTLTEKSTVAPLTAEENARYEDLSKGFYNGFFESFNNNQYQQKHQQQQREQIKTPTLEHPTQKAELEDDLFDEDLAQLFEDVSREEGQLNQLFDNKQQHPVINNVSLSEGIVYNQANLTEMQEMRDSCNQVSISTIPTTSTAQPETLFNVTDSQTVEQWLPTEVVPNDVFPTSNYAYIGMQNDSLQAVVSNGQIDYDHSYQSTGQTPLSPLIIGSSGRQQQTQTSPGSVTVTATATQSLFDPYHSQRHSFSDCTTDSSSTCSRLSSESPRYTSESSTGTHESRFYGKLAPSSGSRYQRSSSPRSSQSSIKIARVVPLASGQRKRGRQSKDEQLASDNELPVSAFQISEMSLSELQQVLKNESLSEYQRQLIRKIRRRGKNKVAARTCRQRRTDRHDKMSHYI
# BJ [9] = experiment: BJ-TERT fibroblast viability loss – cell-based, RAS-independent, luminescence, dose response (AID 1933); assay type: functional; conditions: Homo sapiens
# [10] = target: T5, Heat shock factor protein 1 (Mus musculus, UniProt P38532); experiment: decrease of HSF1-responsive luciferase luminescence – cell-based, NIH3T3, dose retest, confirmation (AID 2382); assay type: functional;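 also: NIH3T3 fibroblasts with HSF1-driven luciferase reporter stressed by proteasome inhibitor MG132; luminescence from HSF1-driven luciferase expression after 8 hours of MG132 stress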
# T5 sequence (P38532 whole entry): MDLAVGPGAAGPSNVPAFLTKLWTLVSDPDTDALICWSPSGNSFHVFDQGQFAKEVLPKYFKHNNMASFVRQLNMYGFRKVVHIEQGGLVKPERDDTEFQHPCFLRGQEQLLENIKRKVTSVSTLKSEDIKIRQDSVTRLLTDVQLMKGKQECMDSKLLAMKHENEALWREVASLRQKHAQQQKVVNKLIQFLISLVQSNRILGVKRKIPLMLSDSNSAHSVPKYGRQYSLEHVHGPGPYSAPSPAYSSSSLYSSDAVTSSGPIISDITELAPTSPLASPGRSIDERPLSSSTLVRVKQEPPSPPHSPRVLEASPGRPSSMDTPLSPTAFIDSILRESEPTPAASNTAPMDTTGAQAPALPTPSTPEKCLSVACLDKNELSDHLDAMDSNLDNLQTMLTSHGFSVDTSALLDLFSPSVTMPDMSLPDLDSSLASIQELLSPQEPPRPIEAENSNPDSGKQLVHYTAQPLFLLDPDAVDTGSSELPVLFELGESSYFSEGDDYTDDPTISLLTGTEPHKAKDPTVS
# BJ [11] = experiment: cells; assay type: functional, cell-based; conditions: Homo sapiens
# [12] = Trypanosoma cruzi growth suppression in host cells – NIH3T3 host cells, beta-gal luminescence, confirmation (AID 2044); assay type: functional, cell-based;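 also: intracellular parasites grown in NIH/3T3 mouse fibroblasts as host cells; luminescent beta-galactosidase reporter signal from transgenic T. cruzi replicating inside host cells; inhibitors lower the luminescence signal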
# [13] = NIH3T3 cell viability loss – ATP luminescence, mouse fibroblasts, counter-screen, dose response (AID 2010); assay type: functional, cell-based;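 also: cells exposed to compound for about 90 hours before reading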
# BJ [14] = experiment: BJ-TERT-LT-ST fibroblast viability loss – cell-based, RAS-independent, luminescence, dose response (AID 1935); assay type: functional; conditions: Homo sapiens;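 also: BJ fibroblasts immortalized with TERT plus LT and ST oncogenes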
# [15] = DRD fibroblast viability loss – cell-based, non-viral oncogenic, luminescence, dose response (AID 1934); assay type: functional; conditions: Homo sapiens
# [16] = Late stage counterscreen results from the probe development effort to identify activators of signal transducer and activator of transcription 1 (STAT1): luminescence-based cell-based dose response assay to identify cytotoxic compounds.; assay type: functional
# Fatty acid synthase [17] = target: T6, Fatty acid synthase (Homo sapiens, UniProt P49327); experiment: inhibition of human FAS-TE enzyme activity – biochemical, endpoint fluorescence intensity, uHTS hits, dose response (AID 624327); assay type: functional;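 also: fluorescence from hydrolysis of an O-methyl fluorescein acyl ester substrate by the enzyme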
# Fatty acid synthase [18] = target: T6, Fatty acid synthase; experiment: inhibition of human FAS-TE enzyme activity – biochemical, kinetic fluorescence intensity, dose response (AID 624326); assay type: functional;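 also: rate of fluorescence rise from hydrolysis of a fluorogenic O-methyl fluorescein ester substrate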
# Estrogen receptor = target: T7, Estrogen receptor (Homo sapiens, UniProt P03372);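 also: potency for inhibiting coactivator peptide recruitment to the receptor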
# T7 sequence (P03372 whole entry): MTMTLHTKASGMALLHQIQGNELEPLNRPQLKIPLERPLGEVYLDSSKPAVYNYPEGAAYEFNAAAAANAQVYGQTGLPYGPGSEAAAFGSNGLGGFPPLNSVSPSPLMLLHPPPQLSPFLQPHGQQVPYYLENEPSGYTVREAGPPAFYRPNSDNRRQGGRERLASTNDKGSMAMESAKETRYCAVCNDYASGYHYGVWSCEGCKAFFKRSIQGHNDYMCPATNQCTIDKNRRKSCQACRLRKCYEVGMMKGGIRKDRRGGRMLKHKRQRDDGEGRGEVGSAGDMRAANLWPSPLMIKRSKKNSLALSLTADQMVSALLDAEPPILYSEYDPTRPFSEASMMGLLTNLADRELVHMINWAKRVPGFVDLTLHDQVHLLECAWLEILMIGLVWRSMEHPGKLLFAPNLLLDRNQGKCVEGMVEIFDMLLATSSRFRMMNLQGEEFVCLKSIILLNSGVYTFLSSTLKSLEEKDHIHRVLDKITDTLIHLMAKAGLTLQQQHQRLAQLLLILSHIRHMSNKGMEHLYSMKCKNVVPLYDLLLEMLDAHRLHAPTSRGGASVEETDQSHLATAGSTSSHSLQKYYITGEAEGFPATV
# T3 sequence (P11940 whole entry, the tested form may be a part): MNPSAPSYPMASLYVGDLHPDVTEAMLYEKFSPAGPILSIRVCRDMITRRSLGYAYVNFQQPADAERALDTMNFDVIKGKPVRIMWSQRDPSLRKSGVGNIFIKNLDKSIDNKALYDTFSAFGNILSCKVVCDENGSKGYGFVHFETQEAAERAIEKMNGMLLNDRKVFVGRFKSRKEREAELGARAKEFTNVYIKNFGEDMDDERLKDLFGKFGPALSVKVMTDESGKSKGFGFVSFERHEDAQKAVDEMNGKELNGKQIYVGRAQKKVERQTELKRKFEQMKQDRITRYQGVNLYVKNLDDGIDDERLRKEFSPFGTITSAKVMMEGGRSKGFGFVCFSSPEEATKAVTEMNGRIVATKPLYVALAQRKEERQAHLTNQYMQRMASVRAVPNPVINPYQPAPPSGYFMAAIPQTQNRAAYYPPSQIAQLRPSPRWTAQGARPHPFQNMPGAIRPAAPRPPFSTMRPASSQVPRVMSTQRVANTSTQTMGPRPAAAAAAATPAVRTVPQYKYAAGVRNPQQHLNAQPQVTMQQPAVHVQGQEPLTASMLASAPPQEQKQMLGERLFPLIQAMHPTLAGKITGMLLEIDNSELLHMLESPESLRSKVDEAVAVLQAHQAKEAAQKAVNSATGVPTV
# Paired box protein Pax-8, sequence (Q06710 whole entry): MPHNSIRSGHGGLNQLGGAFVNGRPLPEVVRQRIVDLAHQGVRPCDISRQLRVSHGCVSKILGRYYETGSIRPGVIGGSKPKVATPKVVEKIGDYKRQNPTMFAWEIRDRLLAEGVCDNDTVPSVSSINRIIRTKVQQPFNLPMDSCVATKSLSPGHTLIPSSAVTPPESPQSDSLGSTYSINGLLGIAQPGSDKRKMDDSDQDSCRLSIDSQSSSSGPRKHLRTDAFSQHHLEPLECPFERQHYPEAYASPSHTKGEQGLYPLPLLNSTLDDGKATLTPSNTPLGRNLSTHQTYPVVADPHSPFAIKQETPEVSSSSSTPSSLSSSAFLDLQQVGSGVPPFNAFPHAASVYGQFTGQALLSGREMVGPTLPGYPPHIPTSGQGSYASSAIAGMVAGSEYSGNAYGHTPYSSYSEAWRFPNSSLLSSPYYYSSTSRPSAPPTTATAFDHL
# T6 sequence (P49327 whole entry): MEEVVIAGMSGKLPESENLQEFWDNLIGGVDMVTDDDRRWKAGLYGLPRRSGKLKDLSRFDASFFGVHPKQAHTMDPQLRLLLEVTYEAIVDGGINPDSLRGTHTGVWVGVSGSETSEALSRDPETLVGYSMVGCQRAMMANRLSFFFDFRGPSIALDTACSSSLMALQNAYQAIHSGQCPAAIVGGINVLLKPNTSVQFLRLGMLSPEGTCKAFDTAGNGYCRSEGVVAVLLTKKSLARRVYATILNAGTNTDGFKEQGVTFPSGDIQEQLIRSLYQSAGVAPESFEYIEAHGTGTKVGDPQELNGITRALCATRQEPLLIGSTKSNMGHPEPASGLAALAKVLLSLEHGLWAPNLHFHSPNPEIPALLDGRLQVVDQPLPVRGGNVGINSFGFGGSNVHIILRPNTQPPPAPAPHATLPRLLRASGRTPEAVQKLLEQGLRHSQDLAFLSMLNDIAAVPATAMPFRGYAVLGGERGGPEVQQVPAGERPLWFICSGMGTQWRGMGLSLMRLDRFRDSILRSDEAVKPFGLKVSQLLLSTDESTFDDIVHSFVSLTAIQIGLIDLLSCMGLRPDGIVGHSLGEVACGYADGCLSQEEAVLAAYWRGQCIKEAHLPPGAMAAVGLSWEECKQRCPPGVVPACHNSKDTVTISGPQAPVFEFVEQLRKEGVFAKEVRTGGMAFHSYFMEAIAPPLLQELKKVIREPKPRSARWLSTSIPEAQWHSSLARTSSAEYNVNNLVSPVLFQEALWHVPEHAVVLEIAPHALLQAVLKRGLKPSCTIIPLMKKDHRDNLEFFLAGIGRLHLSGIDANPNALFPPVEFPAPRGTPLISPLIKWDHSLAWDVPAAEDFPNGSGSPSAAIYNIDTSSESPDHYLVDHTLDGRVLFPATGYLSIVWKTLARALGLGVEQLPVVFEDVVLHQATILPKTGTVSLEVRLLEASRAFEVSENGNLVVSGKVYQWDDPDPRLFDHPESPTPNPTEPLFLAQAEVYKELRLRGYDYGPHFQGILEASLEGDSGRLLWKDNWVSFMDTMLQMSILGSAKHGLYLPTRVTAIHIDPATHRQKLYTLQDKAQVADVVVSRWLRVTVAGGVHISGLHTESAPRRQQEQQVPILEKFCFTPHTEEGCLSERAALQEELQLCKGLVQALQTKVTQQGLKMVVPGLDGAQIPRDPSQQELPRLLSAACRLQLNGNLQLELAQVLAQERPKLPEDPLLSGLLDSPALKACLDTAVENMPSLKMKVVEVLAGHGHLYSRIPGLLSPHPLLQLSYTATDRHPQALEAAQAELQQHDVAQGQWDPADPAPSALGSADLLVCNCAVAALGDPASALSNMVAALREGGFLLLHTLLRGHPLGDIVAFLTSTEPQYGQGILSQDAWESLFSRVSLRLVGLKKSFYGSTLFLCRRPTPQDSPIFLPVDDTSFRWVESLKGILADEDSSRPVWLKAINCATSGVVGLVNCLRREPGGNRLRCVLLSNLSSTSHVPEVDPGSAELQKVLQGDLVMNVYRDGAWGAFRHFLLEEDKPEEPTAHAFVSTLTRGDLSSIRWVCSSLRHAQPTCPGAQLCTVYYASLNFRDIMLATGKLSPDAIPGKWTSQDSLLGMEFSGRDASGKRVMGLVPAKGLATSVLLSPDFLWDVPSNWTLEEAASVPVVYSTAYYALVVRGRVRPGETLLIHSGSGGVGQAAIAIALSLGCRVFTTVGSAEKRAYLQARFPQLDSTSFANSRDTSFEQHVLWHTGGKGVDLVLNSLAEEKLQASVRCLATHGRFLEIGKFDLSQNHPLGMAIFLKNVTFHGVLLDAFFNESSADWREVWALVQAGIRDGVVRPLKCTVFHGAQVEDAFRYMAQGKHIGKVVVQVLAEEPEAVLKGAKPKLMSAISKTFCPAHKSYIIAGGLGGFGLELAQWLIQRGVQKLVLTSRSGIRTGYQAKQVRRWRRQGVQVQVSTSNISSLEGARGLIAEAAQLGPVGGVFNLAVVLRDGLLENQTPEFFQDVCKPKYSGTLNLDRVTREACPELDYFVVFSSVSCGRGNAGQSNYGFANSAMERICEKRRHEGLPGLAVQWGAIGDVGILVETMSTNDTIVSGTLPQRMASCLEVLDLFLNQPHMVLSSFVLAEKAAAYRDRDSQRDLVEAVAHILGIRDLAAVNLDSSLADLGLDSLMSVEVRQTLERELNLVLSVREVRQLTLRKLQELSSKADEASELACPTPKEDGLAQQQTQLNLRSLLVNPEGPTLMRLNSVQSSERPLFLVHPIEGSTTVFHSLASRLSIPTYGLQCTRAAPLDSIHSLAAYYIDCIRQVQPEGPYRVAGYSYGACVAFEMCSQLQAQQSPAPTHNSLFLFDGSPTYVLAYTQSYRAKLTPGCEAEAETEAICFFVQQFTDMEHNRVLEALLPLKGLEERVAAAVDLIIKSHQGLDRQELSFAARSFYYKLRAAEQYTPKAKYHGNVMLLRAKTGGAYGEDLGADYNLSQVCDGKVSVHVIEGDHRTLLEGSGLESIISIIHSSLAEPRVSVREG
# Ephrin type-A receptor 4, sequence (Q03137 whole entry): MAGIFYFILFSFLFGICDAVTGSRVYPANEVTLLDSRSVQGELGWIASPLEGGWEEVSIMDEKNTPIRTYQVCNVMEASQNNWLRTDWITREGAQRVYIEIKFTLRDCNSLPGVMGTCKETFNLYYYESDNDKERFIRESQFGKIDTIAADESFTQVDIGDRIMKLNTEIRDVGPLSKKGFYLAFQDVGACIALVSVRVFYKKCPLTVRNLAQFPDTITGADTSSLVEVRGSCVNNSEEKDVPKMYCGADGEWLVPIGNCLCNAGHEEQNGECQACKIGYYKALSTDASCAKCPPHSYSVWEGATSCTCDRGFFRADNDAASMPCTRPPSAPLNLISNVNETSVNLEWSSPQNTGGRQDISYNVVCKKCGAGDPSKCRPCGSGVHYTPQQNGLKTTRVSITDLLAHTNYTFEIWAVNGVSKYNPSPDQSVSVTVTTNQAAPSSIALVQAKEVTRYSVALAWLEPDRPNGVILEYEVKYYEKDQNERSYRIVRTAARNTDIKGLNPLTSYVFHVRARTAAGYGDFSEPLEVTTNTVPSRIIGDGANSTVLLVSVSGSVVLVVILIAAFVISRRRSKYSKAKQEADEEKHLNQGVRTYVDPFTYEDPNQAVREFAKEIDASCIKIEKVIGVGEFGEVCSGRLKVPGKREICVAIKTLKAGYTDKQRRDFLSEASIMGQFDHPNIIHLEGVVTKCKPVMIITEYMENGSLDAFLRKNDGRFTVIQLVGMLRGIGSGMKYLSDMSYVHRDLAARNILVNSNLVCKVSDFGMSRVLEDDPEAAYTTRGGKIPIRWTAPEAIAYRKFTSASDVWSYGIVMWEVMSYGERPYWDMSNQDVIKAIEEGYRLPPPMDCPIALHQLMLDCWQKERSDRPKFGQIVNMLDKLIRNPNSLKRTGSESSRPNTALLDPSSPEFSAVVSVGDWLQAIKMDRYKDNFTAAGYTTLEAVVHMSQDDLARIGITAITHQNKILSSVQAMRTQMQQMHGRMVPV
smiles,measurement,setting,value
CCCCCCN(C(=O)CCl)c1ccccc1,IC50,[1],1.19 µM (active)
same,AC50,[2],7.25 µM (active)
same,EC50,Protein RecA,4.45 µM (inconclusive)
same,AC50,Paired box protein Pax-8,6.26 µM (active)
same,AC50,[3],7.01 µM (active)
Cc1cc2cc(CNC(=O)c3ccc(S(=O)(=O)N4CCCCC4)cc3)ccc2n1C,EC50,[4],3.8 µM (active)
same,EC50,[5],8.51 µM (active)
same,EC50,[6],3.37 µM (active)
same,IC50,Ephrin type-A receptor 4,15.8 µM (active)
same,IC50,[7],> 66 µM (inactive)
same,IC50,[8],> 66 µM (inactive)
same,IC50,Protein skinhead-1,> 100 µM (inactive)
Cc1cccc(N(Cc2ccccc2)C(=O)CCl)c1,IC50,[1],0.649 µM (active)
same,EC50,BJ [9],0.356 µM (inconclusive)
same,EC50,[10],2.91 µM (active)
same,EC50,BJ [11],3.61 µM (active)
same,EC50,[12],0.352 µM (active)
same,EC50,[13],2.39 µM (active)
same,EC50,BJ [14],> 150 µM (inconclusive)
same,EC50,[15],2.71 µM (inconclusive)
same,AC50,[2],7.84 µM (active)
same,EC50,Protein RecA,0.536 µM (active)
same,AC50,Paired box protein Pax-8,3.46 µM (active)
same,AC50,[3],4.85 µM (active)
CC(=O)NC(=S)Nc1sc2c(c1C#N)CCCCC2,IC50,[16],> 55.7 µM (not active)
same,IC50,Fatty acid synthase [17],12.3 µM (active)
same,IC50,Fatty acid synthase [18],13.6 µM (active)
COc1ccc2[nH]c3c(c2c1)CCn1c-3nc2ccccc2c1=O,IC50,Estrogen receptor,17.2 µM (active)
same,IC50,[16],> 55.7 µM (not active)
